Results: US20240270762A1, “PENICILLIN-BINDING PROTEIN INHIBITORS” (priority 2021, published 2024)
pEC50: −log10 of the molar value. In brackets after ≈: the same amount, converted by molar mass.

Assays:
[1] = molecular target: T1, PBP3 from Escherichia coli (K-12) (Escherichia coli, UniProt P0AD68); assay: Bocillin-FL fluorescence polarization competition binding, E. coli PBP3
T1 construct: made in house
In short: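 Purified PBP was preincubated with inhibitor (E. coli PBP3 1.5 μM, 30 min; P. aeruginosa PBP3 0.75 μM, A. baumannii PBP3 0.2 μM and PBP1a 1 μM, 15 min), then Bocillin-FL (0.1 μM; 0.05 μM for PBP1a) added and FP read up to 60 min. EC50 = 50% loss of bound probe.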

P. aeruginosa ATCC 27853 = assay: microbe, parasite or virus in culture; type: cell-based; conditions: Pseudomonas aeruginosa, ATCC27853, read-out: Minimum inhibitory concentration, P. aeruginosa ATCC 27853
[2] = tested on: P. aeruginosa (ΔmexAB-oprM); assay: Broth microdilution MIC in iron-depleted CAMHB (IDM); type: cell-based; conditions: Pseudomonas aeruginosa; iron-depleted CAMHB (IDM); […]; read-out: Minimum inhibitory concentration, P. aeruginosa ΔmexAB-oprM
P. aeruginosa CDC-0054 = assay: microbe, parasite or virus in culture; type: cell-based; conditions: Pseudomonas aeruginosa, CDC0054, read-out: Minimum inhibitory concentration, P. aeruginosa CDC-0054
P. aeruginosa CDC-0090 = assay: microbe, parasite or virus in culture; type: cell-based; conditions: Pseudomonas aeruginosa, CDC0090, read-out: Minimum inhibitory concentration, P. aeruginosa CDC-0090
A. baumannii 1258916 = assay: microbe, parasite or virus in culture; type: cell-based, Acinetobacter baumannii; conditions: Acinetobacter baumannii, 1258916, read-out: MIC, A. baumannii 1258916
A. baumannii CDC-0036 = assay: microbe, parasite or virus in culture; type: cell-based; conditions: Acinetobacter baumannii, CDC0036, read-out: MIC, A. baumannii CDC-0036
A. baumannii CDC-0083 = assay: microbe, parasite or virus in culture; type: cell-based; conditions: Acinetobacter baumannii, CDC0083, read-out: MIC, A. baumannii CDC-0083
[3] = tested on: B. thailandensis ATCC 700388; assay: microbe, parasite or virus in culture; type: cell-based; conditions: Burkholderia thailandensis, ATCC700388, read-out: Minimum inhibitory concentration (MIC), B. thailandensis ATCC 700388
P. aeruginosa CDC-0110 = assay: microbe, parasite or virus in culture; type: cell-based; conditions: Pseudomonas aeruginosa, CDC0110, read-out: Minimum inhibitory concentration, P. aeruginosa CDC-0110

T1 sequence (P0AD68 1-577): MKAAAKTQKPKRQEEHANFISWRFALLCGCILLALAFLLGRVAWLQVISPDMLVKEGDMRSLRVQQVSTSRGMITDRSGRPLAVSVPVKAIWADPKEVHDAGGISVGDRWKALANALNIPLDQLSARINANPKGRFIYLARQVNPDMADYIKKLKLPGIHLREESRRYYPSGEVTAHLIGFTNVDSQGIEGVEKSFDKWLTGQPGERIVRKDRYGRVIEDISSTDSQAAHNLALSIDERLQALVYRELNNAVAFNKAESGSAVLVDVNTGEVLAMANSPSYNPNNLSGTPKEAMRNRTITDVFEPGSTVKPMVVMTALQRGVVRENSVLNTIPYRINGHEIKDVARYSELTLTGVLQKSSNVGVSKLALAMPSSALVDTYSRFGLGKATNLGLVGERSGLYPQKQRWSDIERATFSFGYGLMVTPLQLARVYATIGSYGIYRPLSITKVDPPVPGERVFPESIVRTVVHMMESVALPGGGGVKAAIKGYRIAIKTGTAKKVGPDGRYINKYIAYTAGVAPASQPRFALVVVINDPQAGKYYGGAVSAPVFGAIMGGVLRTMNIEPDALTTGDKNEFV

Structure (SMILES)	pEC50 [1]	MIC (P. aeruginosa ATCC 27853)	MIC [2]	MIC (P. aeruginosa CDC-0054)	MIC (P. aeruginosa CDC-0090)	MIC (A. baumannii 1258916)	MIC (A. baumannii CDC-0036)	MIC (A. baumannii CDC-0083)	MIC [3]	MIC (P. aeruginosa CDC-0110)
O=C(NCCCN1CCN(C(=O)NC(C(=O)N[C@H]2Cc3ccc(F)c(C(=O)O)c3OB2O)c2cc(F)c(O)c(O)c2Cl)C(=O)C1=O)c1cc(O)ccc1F (stereo partly drawn) [Example 407, (3R)-3-(2-(2-chloro-5-fluoro-3,4-dihydroxyphenyl)-2-(4-(3-(2-fluoro-5-hydroxybenzamido)propyl)-2,3-dioxopiperazine-1-carboxamido)acetamido)-7-fluoro-2-hydroxy-3,4-dihydro-2H-benzo[e][1,2]oxaborinine-8-carboxylic acid]	> 5.00	< 1 µg/mL	< 1 µg/mL	< 1 µg/mL	< 1 µg/mL	2 to 4 µg/mL (≈ 2.57 to 5.14 µM)	2 to 4 µg/mL (≈ 2.57 to 5.14 µM)	< 1 µg/mL	2 to 4 µg/mL (≈ 2.57 to 5.14 µM)	< 1 µg/mL
O=C(NCCCN1CCN(C(=O)NC(C(=O)N[C@H]2Cc3ccc(F)c(C(=O)O)c3OB2O)c2cc(F)c(O)c(O)c2Cl)C(=O)C1=O)c1cc(O)ccc1Cl (stereo partly drawn) [Example 408, (3R)-3-(2-(2-chloro-5-fluoro-3,4-dihydroxyphenyl)-2-(4-(3-(2-chloro-5-hydroxybenzamido)propyl)-2,3-dioxopiperazine-1-carboxamido)acetamido)-7-fluoro-2-hydroxy-3,4-dihydro-2H-benzo[e][1,2]oxaborinine-8-carboxylic acid]	> 5.00	< 1 µg/mL	< 1 µg/mL	< 1 µg/mL	< 1 µg/mL	2 to 4 µg/mL (≈ 2.52 to 5.04 µM)	8 to 16 µg/mL (≈ 10.1 to 20.1 µM)	< 1 µg/mL	2 to 4 µg/mL (≈ 2.52 to 5.04 µM)	< 1 µg/mL
O=C(NCCCN1CCN(C(=O)NC(C(=O)N[C@H]2Cc3ccc(F)c(C(=O)O)c3OB2O)c2cc(F)c(O)c(O)c2Cl)C(=O)C1=O)c1ccc(F)c(O)c1 (stereo partly drawn) [Example 409, (3R)-3-(2-(2-chloro-5-fluoro-3,4-dihydroxyphenyl)-2-(4-(3-(4-fluoro-3-hydroxybenzamido)propyl)-2,3-dioxopiperazine-1-carboxamido)acetamido)-7-fluoro-2-hydroxy-3,4-dihydro-2H-benzo[e][1,2]oxaborinine-8-carboxylic acid]	> 5.00	< 1 µg/mL	< 1 µg/mL	< 1 µg/mL	< 1 µg/mL	2 to 4 µg/mL (≈ 2.57 to 5.14 µM)	2 to 4 µg/mL (≈ 2.57 to 5.14 µM)	< 1 µg/mL	2 to 4 µg/mL (≈ 2.57 to 5.14 µM)	< 1 µg/mL
O=C(NCCCN1CCN(C(=O)NC(C(=O)N[C@H]2Cc3ccc(F)c(C(=O)O)c3OB2O)c2cc(F)c(O)c(O)c2Cl)C(=O)C1=O)c1cc(O)cc(F)c1 (stereo partly drawn) [Example 410, (3R)-3-(2-(2-chloro-5-fluoro-3,4-dihydroxyphenyl)-2-(4-(3-(3-fluoro-5-hydroxybenzamido)propyl)-2,3-dioxopiperazine-1-carboxamido)acetamido)-7-fluoro-2-hydroxy-3,4-dihydro-2H-benzo[e][1,2]oxaborinine-8-carboxylic acid]	> 5.00	< 1 µg/mL	< 1 µg/mL	< 1 µg/mL	< 1 µg/mL	2 to 4 µg/mL (≈ 2.57 to 5.14 µM)	2 to 4 µg/mL (≈ 2.57 to 5.14 µM)	< 1 µg/mL	2 to 4 µg/mL (≈ 2.57 to 5.14 µM)	< 1 µg/mL
O=C(NCCCN1CCN(C(=O)NC(C(=O)N[C@H]2Cc3ccc(F)c(C(=O)O)c3OB2O)c2cc(F)c(O)c(O)c2Cl)C(=O)C1=O)c1ccc(F)c(O)c1F (stereo partly drawn) [Example 411, (3R)-3-(2-(2-chloro-5-fluoro-3,4-dihydroxyphenyl)-2-(4-(3-(2,4-difluoro-3-hydroxybenzamido)propyl)-2,3-dioxopiperazine-1-carboxamido)acetamido)-7-fluoro-2-hydroxy-3,4-dihydro-2H-benzo[e][1,2]oxaborinine-8-carboxylic acid]	> 5.00	< 1 µg/mL	< 1 µg/mL	< 1 µg/mL	< 1 µg/mL	2 to 4 µg/mL (≈ 2.51 to 5.03 µM)	2 to 4 µg/mL (≈ 2.51 to 5.03 µM)	8 to 16 µg/mL (≈ 10.1 to 20.1 µM)	2 to 4 µg/mL (≈ 2.51 to 5.03 µM)	< 1 µg/mL
O=C(NCCCN1CCN(C(=O)NC(C(=O)N[C@H]2Cc3ccc(F)c(C(=O)O)c3OB2O)c2cc(F)c(O)c(O)c2Cl)C(=O)C1=O)c1c(F)ccc(O)c1F (stereo partly drawn) [Example 413, (3R)-3-(2-(2-chloro-5-fluoro-3,4-dihydroxyphenyl)-2-(4-(3-(2,6-difluoro-3-hydroxybenzamido)propyl)-2,3-dioxopiperazine-1-carboxamido)acetamido)-7-fluoro-2-hydroxy-3,4-dihydro-2H-benzo[e][1,2]oxaborinine-8-carboxylic acid]	> 5.00	< 1 µg/mL	< 1 µg/mL	< 1 µg/mL	< 1 µg/mL	2 to 4 µg/mL (≈ 2.51 to 5.03 µM)	2 to 4 µg/mL (≈ 2.51 to 5.03 µM)	2 to 4 µg/mL (≈ 2.51 to 5.03 µM)	2 to 4 µg/mL (≈ 2.51 to 5.03 µM)	< 1 µg/mL
O=C(NCCCN1CCN(C(=O)NC(C(=O)N[C@H]2Cc3ccc(F)c(C(=O)O)c3OB2O)c2cc(F)c(O)c(O)c2Cl)C(=O)C1=O)c1c(F)ccc(O)c1Cl (stereo partly drawn) [Example 414, (3R)-3-(2-(2-chloro-5-fluoro-3,4-dihydroxyphenyl)-2-(4-(3-(2-chloro-6-fluoro-3-hydroxybenzamido)propyl)-2,3-dioxopiperazine-1-carboxamido)acetamido)-7-fluoro-2-hydroxy-3,4-dihydro-2H-benzo[e][1,2]oxaborinine-8-carboxylic acid]	> 5.00	< 1 µg/mL	< 1 µg/mL	< 1 µg/mL	< 1 µg/mL	2 to 4 µg/mL (≈ 2.46 to 4.92 µM)	2 to 4 µg/mL (≈ 2.46 to 4.92 µM)	2 to 4 µg/mL (≈ 2.46 to 4.92 µM)	2 to 4 µg/mL (≈ 2.46 to 4.92 µM)	< 1 µg/mL
O=C(NCCCN1CCN(C(=O)NC(C(=O)N[C@H]2Cc3ccc(F)c(C(=O)O)c3OB2O)c2cc(F)c(O)c(O)c2Cl)C(=O)C1=O)c1cc(O)c(F)c(O)c1F (stereo partly drawn) [Example 415, (3R)-3-(2-(2-chloro-5-fluoro-3,4-dihydroxyphenyl)-2-(4-(3-(2,4-difluoro-3,5-dihydroxybenzamido)propyl)-2,3-dioxopiperazine-1-carboxamido)acetamido)-7-fluoro-2-hydroxy-3,4-dihydro-2H-benzo[e][1,2]oxaborinine-8-carboxylic acid]	4.30 to 5.00	< 1 µg/mL	< 1 µg/mL	< 1 µg/mL	< 1 µg/mL	2 to 4 µg/mL (≈ 2.46 to 4.93 µM)	2 to 4 µg/mL (≈ 2.46 to 4.93 µM)	2 to 4 µg/mL (≈ 2.46 to 4.93 µM)	8 to 16 µg/mL (≈ 9.85 to 19.7 µM)	< 1 µg/mL
O=C(NCCCN1CCN(C(=O)NC(C(=O)N[C@H]2Cc3ccc(F)c(C(=O)O)c3OB2O)c2cc(F)c(O)c(O)c2Cl)C(=O)C1=O)c1cc(O)c(F)c(O)c1 (stereo partly drawn) [Example 416, (3R)-3-(2-(2-chloro-5-fluoro-3,4-dihydroxyphenyl)-2-(4-(3-(4-fluoro-3,5-dihydroxybenzamido)propyl)-2,3-dioxopiperazine-1-carboxamido)acetamido)-7-fluoro-2-hydroxy-3,4-dihydro-2H-benzo[e][1,2]oxaborinine-8-carboxylic acid]	> 5.00	< 1 µg/mL	< 1 µg/mL	< 1 µg/mL	< 1 µg/mL	< 1 µg/mL	2 to 4 µg/mL (≈ 2.52 to 5.04 µM)	< 1 µg/mL	< 1 µg/mL	< 1 µg/mL
O=C(NCCCN1CCN(C(=O)NC(C(=O)N[C@H]2Cc3ccc(F)c(C(=O)O)c3OB2O)c2cc(F)c(O)c(O)c2Cl)C(=O)C1=O)c1ccc(O)c(F)c1Cl (stereo partly drawn) [Example 418, (3R)-3-(2-(4-(3-(2-chloro-3-fluoro-4-hydroxybenzamido)propyl)-2,3-dioxopiperazine-1-carboxamido)-2-(2-chloro-5-fluoro-3,4-dihydroxyphenyl)acetamido)-7-fluoro-2-hydroxy-3,4-dihydro-2H-benzo[e][1,2]oxaborinine-8-carboxylic acid]	> 5.00	2 to 4 µg/mL (≈ 2.46 to 4.92 µM)	< 1 µg/mL	< 1 µg/mL	< 1 µg/mL	2 to 4 µg/mL (≈ 2.46 to 4.92 µM)	2 to 4 µg/mL (≈ 2.46 to 4.92 µM)	> 128 µg/mL	< 1 µg/mL	< 1 µg/mL
O=C(NCCCN1CCN(C(=O)NC(C(=O)N[C@H]2Cc3ccc(F)c(C(=O)O)c3OB2O)c2cc(F)c(O)c(O)c2Cl)C(=O)C1=O)c1ccc(O)c(Cl)c1F (stereo partly drawn) [Example 419, (3R)-3-(2-(4-(3-(3-chloro-2-fluoro-4-hydroxybenzamido)propyl)-2,3-dioxopiperazine-1-carboxamido)-2-(2-chloro-5-fluoro-3,4-dihydroxyphenyl)acetamido)-7-fluoro-2-hydroxy-3,4-dihydro-2H-benzo[e][1,2]oxaborinine-8-carboxylic acid]	> 5.00	2 to 4 µg/mL (≈ 2.46 to 4.92 µM)	< 1 µg/mL	2 to 4 µg/mL (≈ 2.46 to 4.92 µM)	2 to 4 µg/mL (≈ 2.46 to 4.92 µM)	2 to 4 µg/mL (≈ 2.46 to 4.92 µM)	2 to 4 µg/mL (≈ 2.46 to 4.92 µM)	> 128 µg/mL	2 to 4 µg/mL (≈ 2.46 to 4.92 µM)	< 1 µg/mL
